The source of these data is patent US9115093B2, “Substituted bicyclic dihydropyrimidinones and their use as inhibitors of neutrophil elastase activity” (Boehringer Ingelheim International GmbH, priority 2013, dated 2015).

Each structure is given as a SMILES string. pEC50, pIC50: −log10 of the molar value. Converted amounts (≈) assume the structure as drawn.

Series [1] can be described thus: Metabolic stability with human liver microsomes. It counts as in vitro ADME. The following applies: pooled human liver microsomes, 37° C., 1 mg/ml protein, NADPH. How it is done: Assay for the Determination of Metabolic Stability with Human Liver Microsomes
The metabolic degradation of the test compound is assayed at 37° C. with pooled human liver microsomes. The final incubation volume of […] per time point contains TRIS buffer pH 7.6 (0.1 M), magnesium chloride (5 mM), microsomal protein (1 mg/ml) and the test compound at a final concentration of […]. Following a short preincubation period at 37° C., the reactions are initiated by addition of beta-nicotinamide adenine dinucleotide phosphate, reduced form (NADPH, 1 mM) and terminated by transfering an aliquot into acetonitrile after different time points. Additionally, the NADPH-independent degradation is monitored in incubations without NADPH, terminated at the last time point. The rol remaining test compound after NADPH independent incubation is reflected by the parameter c(control) (metabolic stability). The quenched incubations are pelleted by centrifugation (10′000 g, 5 min) An aliquot of the supernatant is assayed by LC-MS/MS for the amount of parent compound.
The half-life (t1/2 INVITRO) is determined by the slope of the semilogarithmic plot of the concentration-time profile. The intrinsic clearance (CL_[…]) is calculated by considering the amount of protein in the incubation: CL_[…][μl/min/mg protein]=(ln 2/(half-life [min]*protein content [mg/ml]))*1′000.
The half-life (t1/2 INVITRO) values of selected compounds in the metabolic stability assay described above are listed in Table 15.
A general note: Liver microsomes are a subcellular fraction often used to study metabolism.

The nature of series [2]: Metabolic stability with human hepatocytes. The format is in vitro ADME. The following applies: human hepatocyte suspension, 1 μM, scaled with well stirred model. How it is done:
Assay for the Determination of Metabolic Stability with Human Hepatocytes
The metabolic degradation of the test compound is assayed in a human hepatocyte suspension. Human hepatocytes (typically cryopreserved) are incubated in an appropriate buffer system (e.g. Dulbecco's modified eagle medium plus 3.5 μg glucagon/500 mL, 2.5 mg insulin/500 mL and 3.75 mg/500 mL hydrocortison) containing 5% species serum. Following a (typically) […] preincubation in an incubator (37° C., 10% CO2), 5 μl of test compound solution (80 μM; from 2 mM stock solution in DMSO diluted 1:25 with medium) are added into 395 μl hepatocyte suspension (cell density in the range 0.25-5*10^6 cells/mL, typically 1*10^6 cells/mL; final concentration of test compound 1 μM, final DMSO concentration […]). The cells are incubated for six hours (incubator, orbital shaker) and samples (25 μl) are taken at 0, 0.5, 1, 2, 4 and 6 hours. Samples are transferred into acetonitrile and pelleted by centrifugation (5 min). The supernatant is transferred to a new 96-deepwell plate, evaporated under nitrogen and resuspended. The decline of parent compound is analyzed by LC-MS/MS.
The intrinsic clearance CL_[…] is calculated as follows: CL_[…]=Dose/AUC=(C0/CD)/(AUD+clast/k)*1′000/60 (C0: initial concentration in the incubation [μM], CD: cell density of vital cells [10^6 cells/mL], AUD: area under the data [μM*h], clast: concentration of last data point [μM], k: slope of the regression line for parent decline [h^−1])
The calculated in vitro hepatic intrinsic clearance can be scaled up to the intrinsic in vivo hepatic clearance and used to predict hepatic in vivo blood clearance (CL) by the use of a is liver model (well stirred model): CL_[…]_INVIVO [ml/min/kg]=(CL_[…] [μL/min/10^6 cells]* hepatocellularity[10^6 cells/g liver]*liver factor[g/kg bodyweight])/1′000 CL[ml/min/kg]=CL_[…]_INVIVO [ml/min/kg]*hepatic blood flow [ml/min/kg]/(CL_[…]_INVIVO [ml/min/kg]+hepatic blood flow [ml/min/kg]) Qh[%]=CL[ml/min/kg]/hepatic blood flow[ml/min/kg]) (Hepatocellularity, human: 120*10^6 cells/g liver; lver factor, human: 25.7 g/kg bodyweight; blood flow, human: 21 ml/(min*kg))
The predicted human hepatic in vivo blood clearance (CL) of selected compounds in the metabolic stability assay described above are listed in Table 16.

Series [3] can be described thus: Drug transport across human CACO-2 cells. It counts as in vitro ADME. The source says:
Assay for Determination of Drug Transport Across Human CACO-2 Cells
The assay provides information on the potential of a compound to pass the cell membrane, on the extent of oral absorption as well as on whether the compound is actively transported by uptake and/or efflux transporters. For the measurement of permeability across polarized, confluent human cancer colon carcinoma cells 2 (Caco-2) cell monolayers grown on permeable filter supports are used as the in vitro absorption model. Apparent permeability coefficients (PE) of the compounds across the Caco-2 monolayers are measured (pH 7.2, 37° C.) in apical-to-basal (AB) (absorptive) and basal-to-apical (BA) (secretory) transport direction. AB permeability (PEAB) represents drug absorption from the intestine into the blood and BA permeability (PEBA) drug secretion from the blood back into the intestine via both passive permeability as well as active transport mechanisms mediated by efflux and uptake transporters that are expressed on the Caco-2 cells. The compounds are assigned to permeability/absorption classes by comparison of the AB permeabilities with the AB permeabilities of reference compounds with known in vitro permeability and oral absorption in the human. Identical or similar permeabilities in both transport directions indicate passive permeation, vectorial permeability points to additional active transport mechanisms. […] Active transport is concentration-dependently saturable.
Caco-2 cells (1−2*10^5 cells/cm^2 area) are seeded on filter inserts (Costar transwell polycarbonate or PET filters, […] pore size) and cultured (DMEM) for 10 to 25 days. Compounds are dissolved in appropriate solvent (like DMSO, 1-20 mM stock solutions). Stock solutions are diluted with HTP-4 buffer (128.13 mM NaCl, 5.36 mM KCl, 1 mM MgSO4, 1.8 mM CaCl2, 4.17 mM NaHCO3, 1.19 mM Na2HPO4×7H2O, 0.41 mM NaH2PO4×H2O, 15 mM HEPES, 20 mM glucose, pH 7.2) to prepare the transport solutions (typically […] compound, final DMSO <=0.5%). The transport solution (TL) is applied to the apical or basolateral donor side for measuring A-B or B-A permeability (3 filter replicates), respectively. The receiver side contains HTP-4 buffer supplemented with 2% BSA. Samples are collected at the start and end of experiment from the donor and at various time intervals for up to 2 hours also from the receiver side for concentration measurement by LC-MS/MS or scintillation counting. Sampled receiver volumes are is replaced with fresh receiver solution.
The apparent permeability coefficients (PEAB and PEBA) and efflux ratios (PEBA/PEAB) of selected compounds in the Caco-2 drug transport assay described above are listed in Table 17.

Another series can be described thus: Aqueous solubility. It counts as physicochemical. The following applies: McIlvaine buffer with 2.5% DMSO; McIlvaine buffer pH 6.8, 2.5% DMSO, 24 h shaking. How it is done:
Assay for Determination of Aqueous Solubility
The aqueous solubility of a compound is determined by comparing the amount dissolved in aqueous buffer (containing 2.5% DMSO) to the amount dissolved in an acetonitrile/water (1/1) solution. Starting from a 10 mM DMSO stock solution, aliquots are diluted with acetonitrile/water (1/1) and Mcllvaine buffer pH 6.8, respectively. After 24 h of shaking, the solutions or suspensions are filtered and analyzed by LC-UV. The amount dissolved in buffer is compared to the amount dissolved in the acetonitrile/water (1/1) solution. Solubility is measured from 0.001 to 0.125 mg/ml at a DMSO concentration of 2.5%. If more than 90% of the compound is dissolved in buffer, the value is marked with “>”.

Series [4] deals with T1, neutrophil elastase (Homo sapiens, UniProt P08246).
T1 sequence (P08246 30-247 limits assumed): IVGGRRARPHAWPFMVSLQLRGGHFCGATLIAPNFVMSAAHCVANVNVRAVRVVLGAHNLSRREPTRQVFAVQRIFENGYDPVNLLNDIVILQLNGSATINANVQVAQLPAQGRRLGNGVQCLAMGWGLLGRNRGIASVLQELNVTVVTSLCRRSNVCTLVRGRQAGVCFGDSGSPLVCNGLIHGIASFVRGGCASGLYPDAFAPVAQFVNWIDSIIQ
Description: Human Neutrophil Elastase Assay. The format is biochemical. The following applies: substrate MeOSuc-Ala-Ala-Pro-Val-AMC, pH 7.5, room temperature. Also on record: purchased Calbiochem 324681. Summed up:
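Readout: AMC fluorescence (ex 380, em 460 nm) after 60 min room-temperature reaction with 250 nM MeOSuc-AAPV-AMC, following 15 min compound–enzyme preincubation. Buffer: Tris/NaCl pH 7.5, 0.01% BSA.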

Series [5] addresses T1, neutrophil elastase. Description: Neutrophil elastase inhibitory activity in human plasma. The format is biochemical. Also on record: The stimulated blood is centrifuged to generate the neutrophil elastase enriched plasma; from tissue; host or cells: plasma from zymosan-stimulated citrated whole blood of healthy human donors. The following applies: neutrophil elastase enriched human plasma (zymosan-stimulated blood), substrate MeOSuc-Ala-Ala-Pro-Val-AMC. The procedure:
Assay for the Determination of Neutrophil Elastase Inhibitory Activity in Human Plasma
Citrated blood from human healthy donors is mixed with zymosan suspension and incubated at room temperature. This leads to the stimulation of neutrophils and the release of neutrophil elastase into the plasma. The stimulated blood is centrifuged to generate the neutrophil elastase enriched plasma.
Preparation of Zymosan Working Solution:
• single 45 ml blood sample is taken into a 50 ml tube containing citrate (3.13%, 5 mL) and the tube is gently inverted 4 times. • Immediately after blood sampling, zymosan working solution (5 mL) is added. • After the addition of zymosan working solution, the tubes are capped, mixed gently and incubated at 22° C. for 15 min on a shaker at 20 rpm. • Make 10 ml aliquots after the incubation time. • Centrifuge the 15 ml tubes at 800 g for […] at 4° C. in a Jouan centrifuge. • Harvest the plasma and make 1-5 ml aliquots. • Store the plasma at −80° C.
Various concentrations of the neutrophil elastase inhibitor are incubated with plasma. Subsequently, the enzyme activity is measured using the fluorogenic substrate MeOSuc-Ala-Ala-Pro-Val-AMC (Bachem Cat. No. 1-1270, substrate concentration: 250 μM, pH 7.5, 25 mM TRIS buffer, 250 mM NaCl) in analogous fashion as described for the human neutrophil assay. A dose response curve is generated to calculate the EC50 of the inhibitor. The analysis of the data is performed by the calculation of the percentage of fluorescence in the presence of the test compound compared to the fluorescence of the vehicle control after subtracting the background fluorescence: An inhibitor of the neutrophil elastase enzyme will give values between 100% control (no inhibition) and 0% control (complete inhibition). The human plasma shift of selected compounds can be calculated using the following equation: Human plasma shift=(EC50 in human plasma assay)/(IC50 in human neutrophil elastase assay) The EC50 values of selected compounds in the human plasma assay described above are listed in Table 14.

In general, efflux ratio refers to the permeability from basolateral to apical divided by that in the opposite direction, in the common usage. Usually solubility stands for the concentration that dissolves in the medium under given conditions. Read a high solubility as much dissolved substance. For orientation: pIC50 means the negative decadic logarithm of the IC50, by convention in mol/L. High values mean a small IC50, low ones a large IC50. What is called pEC50 is the EC50 on a negative log10 scale, so that one unit is a factor of ten. High values mean a low EC50, low ones a high EC50.

Regarding `CS(=O)(=O)c1cc(C#N)ccc1C1C2=C(CCCC2=O)N(c2cccc(C(F)(F)F)c2)C(=O)N1CCCO` (stereo not drawn) [Example 58.2], in series [1], the “t1/2 INVITRO” value is greater than 2.17 h. Moreover, the “CL (predicted human hepatic in vivo blood clearance)” value in series [2] is 3 mL/min/kg.

Turning to `CC(C)(O)CNC(=O)N1C(=O)N(c2cccc(C(F)(F)F)c2)C2=C(C(=O)CCC2)C1c1ccc(C#N)cc1` (stereo not drawn) [Example 70.9], the “t1/2 INVITRO” value in series [1] is greater than 2.17 h. Moreover, the “CL (predicted human hepatic in vivo blood clearance)” value in series [2] was 0 mL/min/kg.

In the case of `CS(=O)(=O)c1cc(C#N)ccc1[C@@H]1C2=C(CCCC2=O)N(c2cccc(C(F)(F)F)c2)C(=O)N1C(=O)NC1CCOCC1` [Example 75.16], the “t1/2 INVITRO” value in series [1] was greater than 2.17 h. In addition, in series [2], the “CL (predicted human hepatic in vivo blood clearance)” value was 0 mL/min/kg.

In the case of `CN(C)CCNC(=O)N1C(=O)N(c2cccc(C(F)(F)F)c2)C2=C(C(=O)CCC2)C1c1ccc(C#N)cc1` (stereo not drawn) [Example 39.8], the Papp A→B at 10 nM in series [3] (Caco-2 monolayers, apical-to-basal, pH 7.2, 37° C., read-out: PEAB) is 16.4 ×10⁻⁶ cm/s. For the same compound, in series [3] (Caco-2 monolayers, basal-to-apical, pH 7.2, 37° C., read-out: PEBA), the Papp B→A at 10 nM turned out to be 80.7 ×10⁻⁶ cm/s. In series [3] (pH 7.2, Caco-2, PEBA/PEAB), the efflux ratio at 10 nM worked out at 4.9. The compound further showed a solubility at 24 h in the series “Aqueous solubility” of 98 µg/mL (≈ 186 µM). The compound also gave a pIC50 against neutrophil elastase [4] of 8.85. The pEC50 at neutrophil elastase [5] is 8.22.
